Test results: patent publication US8071654B2, “Inhibitors of thromboxane formation and action” (priority 2000, dated 2011)

Target: T1, 12-LOX (Homo sapiens, UniProt P18054)
T1 construct: endogenous in cells; host or cells: washed human platelets
T1 sequence (P18054 1-663): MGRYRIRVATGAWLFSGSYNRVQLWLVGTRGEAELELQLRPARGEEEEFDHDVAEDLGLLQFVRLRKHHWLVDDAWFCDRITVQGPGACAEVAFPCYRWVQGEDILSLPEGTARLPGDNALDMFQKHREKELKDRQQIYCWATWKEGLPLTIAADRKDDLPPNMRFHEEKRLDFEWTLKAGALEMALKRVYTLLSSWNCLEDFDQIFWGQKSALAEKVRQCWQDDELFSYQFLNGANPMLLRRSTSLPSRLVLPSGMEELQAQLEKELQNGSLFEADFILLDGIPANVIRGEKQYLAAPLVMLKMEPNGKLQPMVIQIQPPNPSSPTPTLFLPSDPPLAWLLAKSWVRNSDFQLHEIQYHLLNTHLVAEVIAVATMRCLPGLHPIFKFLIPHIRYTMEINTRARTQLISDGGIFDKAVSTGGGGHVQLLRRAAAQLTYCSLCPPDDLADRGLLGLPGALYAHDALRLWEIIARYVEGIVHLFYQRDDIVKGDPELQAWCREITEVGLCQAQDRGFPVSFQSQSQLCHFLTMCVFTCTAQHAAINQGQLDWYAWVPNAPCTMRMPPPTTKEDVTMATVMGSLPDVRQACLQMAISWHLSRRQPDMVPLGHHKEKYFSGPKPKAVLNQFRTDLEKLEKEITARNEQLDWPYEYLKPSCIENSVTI
Assay: 12-HETE formed in collagen-treated washed human platelets (12-LOX), HPLC
Type: cell-based
Settings: for 12-LOX enzyme activity (% of control values, mean ± SD): n = 3
Description: 0.5 ml of platelet suspension was added to siliconized glass tubes (four at a time) and heated with magnetic stirring to 37° for 1 min in a platelet aggregometer (PAP-4C). Either vehicle alone (ethanol, 1 μl) or hepoxilin analog was then added, followed two min later by agonist (collagen: 2 μg; PGH2: 100 ng/0.5 ml; U46619: 10 ng/0.5 ml or I-BOP: 2 ng/0.5 ml). The response was recorded for the next 5 min. In experiments where analysis of TxB2 and HHT were to be made by HPLC, the platelet suspension at the end of the experiment was diluted with ethyl acetate, 100 ng of prostaglandin B1 was added as internal standard, and the mixture was acidified to pH 3 with 0.1 N HCl. After centrifugation, the organic layer was separated, washed twice with water to neutrality, and evaporated to dryness. Half of the sample was taken and was resuspended in 1 ml ethyl acetate containing 20 μg ADAM reagent, and was left in the dark for 2 h (38). The solvent was then evaporated and the residue was acetylated with a solution of pyridine/acetic anhydride (3/1, v/v) during 16 h at 23°. The reagents were evaporated to dryness and the residue was resuspended in acetonitrile/water for HPLC analysis. In experiments where the conversion of tritiated PGH2 was to be monitored, the procedure described above was repeated with tritiated PGH2 instead of unlabeled PGH2. After extraction of the sample as described above, the radiolabeled compounds were analyzed by TLC. Dose response curves for varying amounts of test compounds were generated and the data expressed as % inhibition of collagen-induced platelet aggregation. Each point was investigated 5 times and statistical analysis of the data was carried out using Macintosh Statview statistical software.
Measurement of eicosanoids formed by platelets during treatment with collagen or the TP receptor agonists in the presence or absence of PBT-3 was carried out by HPLC after appropriate derivatization with a fluorescent tag (anthracyl diazomethane—ADAM) which forms a fluorescent ester (44). The method was adapted to measure the following compounds: TxB2, HHT, 12-HETE and M. The platelet suspension at the end of the experiment was mixed with ethyl acetate, 100 ng of prostaglandin B1 was added as internal standard and the mixture was acidified to pH 3 with 0.1 N HCl. After centrifugation, the organic layer was separated, washed twice with water to neutrality, and evaporated to dryness. The residue was resuspended in ethyl acetate and half of the sample was taken. It was diluted to 0.2 ml with ethyl acetate containing 20 μg ADAM reagent, and was left in the dark for 2 h. The solvent was then evaporated and the residue was acetylated with a solution of pyridine/acetic anhydride (3/1, v/v) for 16 h at 23°. The reagents were evaporated to dryness and the residue was resuspended in acetonitrile/water for HPLC analysis. Dose response curves for varying amounts of test compounds were generated and the data were expressed as % inhibition of agonist-induced platelet aggregation. Each point was investigated 3 times and statistical analysis of the data was carried out using Macintosh Statview statistical software.
Analysis of the anthryl (ADAM)-acetate derivative of TxB2, HHT and 12 HETE in the extracted platelet samples was carried out on a Hewlett Packard (1100 series) HPLC to which was attached a Shimadzu fluorescent detector (RF-10AXL). The detector was operated with excitation at 364 nm, emission at 411 nm. […]

CCCCC/C=C\CC1CC1[C@@H](O)/C=C\C/C=C\CCCC(=O)OC (stereo partly drawn) [PBT-3, 10(S)-hydroxy-11,12-cyclopropyl-eicosa-5Z,8Z,14Z-trienoic acid methyl ester]
12-LOX enzyme activity (% of control values, mean ± SD) (PBT-3 0.05 μM): 79.4 ± 7.6 % of control
12-LOX enzyme activity (% of control values, mean ± SD) (PBT-3 0.30 μM): 85.2 ± 7.4^NS % of control
12-LOX enzyme activity (% of control values, mean ± SD) (PBT-3 0.60 μM): 73.0 ± 4.9 % of control
12-LOX enzyme activity (% of control values, mean ± SD) (PBT-3 3.00 μM): 102.5 ± 5.7^NS % of control
inhibition of 12-LOX, in words (relatively large amounts of PBT-3, about 3-4 log doses greater than required to inhibit the TP receptor): Neither COX-1, COX-2,12-LOX nor Plase A2 was inhibited
